{"source": "patent US8211662B2", "about": "“Nitroreductase enzymatic substrates” (Biomerieux, priority 2007, dated 2012)", "key": {"[1]": {"test_system": "Salmonella typhimurium NCTC 74", "assay": "Nitroreductase detection on Columbia agar, colonies read under UV", "type": "cell-based", "design": "key to Intensity of fluorescence, Salmonella typhimurium NCTC 74 / F: fluorescence (intensity), Salmonella typhimurium NCTC 74 / Intensity of the fluorescence, Salmonella typhimurium NCTC 74: − = no fluorescence detected; +/− = weak fluorescence; + = medium fluorescence; ++ = strong fluorescence", "conditions": "Table 3; 100 mg/l in Columbia agar, 24 h 37° C., UV 360-365 nm", "protocol": "(§1) A mass of 40 mg of each substrate was dissolved in 4 ml of dimethylformamide (DMF). This solution was entirely taken up in 400 ml of Columbia agar autoclaved beforehand and kept molten at 50° C. The final concentration for each substrate was 100 mg/l.\n(§2) Each of the media was distributed into Petri dishes 90 mm in diameter, in a proportion of 20 ml per dish.\n(§3) 18 microorganism strains derived from collections and belonging to various species of bacteria and of yeasts were inoculated onto these media by semi-quantitative isolation of 10 μl of a suspension at 0.5 McFarland diluted to 1/20. The media were incubated for 24 hours at 37° C., then the colonies formed were examined visually under UV illumination at 360-365 nm."}, "[2]": {"test_system": "Morganella morganii 462403 (wild)", "assay": "Nitroreductase detection on Columbia agar, colonies read under UV", "type": "cell-based", "design": "key to Intensity of fluorescence, Morganella morganii 462403 / F: fluorescence (intensity), Morganella morganii 462403 (wild) / Intensity of the fluorescence, Morganella morganii 462403 (wild): − = no fluorescence detected; +/− = weak fluorescence; + = medium fluorescence; ++ = strong fluorescence", "conditions": "Table 3; 100 mg/l in Columbia agar, 24 h 37° C., UV 360-365 nm", "protocol": "as §1, §2, §3"}, "[3]": {"test_system": "Enterococcus faecium NCTC 7171", "assay": "Nitroreductase detection on Columbia agar, colonies read under UV", "type": "cell-based", "design": "key: − = no fluorescence detected; +/− = weak fluorescence; + = medium fluorescence; ++ = strong fluorescence", "conditions": "Table 3; 100 mg/l in Columbia agar, 24 h 37° C., UV 360-365 nm", "protocol": "as §1, §2, §3"}, "[4]": {"test_system": "Streptococcus pyogenes NCTC 8306", "assay": "Nitroreductase detection on Columbia agar, colonies read under UV", "type": "cell-based", "design": "key: − = no fluorescence detected; +/− = weak fluorescence; + = medium fluorescence; ++ = strong fluorescence", "conditions": "Table 3; 100 mg/l in Columbia agar, 24 h 37° C., UV 360-365 nm", "protocol": "as §1, §2, §3"}, "[5]": {"test_system": "Providencia rettgeri NCTC 7475", "assay": "Nitroreductase detection on Columbia agar, colonies read under UV", "type": "cell-based", "design": "key: − = no fluorescence detected; +/− = weak fluorescence; + = medium fluorescence; ++ = strong fluorescence", "conditions": "Table 3; 100 mg/l in Columbia agar, 24 h 37° C., UV 360-365 nm", "protocol": "as §1, §2, §3"}, "[6]": {"test_system": "Enterococcus faecalis NCTC 775", "assay": "Nitroreductase detection on Columbia agar, colonies read under UV", "type": "cell-based", "design": "key: − = no fluorescence detected; +/− = weak fluorescence; + = medium fluorescence; ++ = strong fluorescence", "conditions": "Table 3; 100 mg/l in Columbia agar, 24 h 37° C., UV 360-365 nm", "protocol": "as §1, §2, §3"}, "[7]": {"test_system": "Listeria monocytogenes NCTC 11994", "assay": "Nitroreductase detection on Columbia agar, colonies read under UV", "type": "cell-based", "design": "key: − = no fluorescence detected; +/− = weak fluorescence; + = medium fluorescence; ++ = strong fluorescence", "conditions": "Table 3; 100 mg/l in Columbia agar, 24 h 37° C., UV 360-365 nm", "protocol": "as §1, §2, §3"}, "[8]": {"test_system": "Serratia marcescens NCTC 10211", "assay": "Nitroreductase detection on Columbia agar, colonies read under UV", "type": "cell-based", "design": "key: − = no fluorescence detected; +/− = weak fluorescence; + = medium fluorescence; ++ = strong fluorescence", "conditions": "Table 3; 100 mg/l in Columbia agar, 24 h 37° C., UV 360-365 nm", "protocol": "as §1, §2, §3"}, "[9]": {"test_system": "Burkholderia cepacia 1222", "assay": "Nitroreductase detection on Columbia agar, colonies read under UV", "type": "cell-based", "design": "key: − = no fluorescence detected; +/− = weak fluorescence; + = medium fluorescence; ++ = strong fluorescence", "conditions": "Table 3; 100 mg/l in Columbia agar, 24 h 37° C., UV 360-365 nm", "protocol": "as §1, §2, §3"}, "[10]": {"test_system": "Enterobacter cloacae NCTC 11936", "assay": "Nitroreductase detection on Columbia agar, colonies read under UV", "type": "cell-based", "design": "key: − = no fluorescence detected; +/− = weak fluorescence; + = medium fluorescence; ++ = strong fluorescence", "conditions": "Table 3; 100 mg/l in Columbia agar, 24 h 37° C., UV 360-365 nm", "protocol": "as §1, §2, §3"}, "[11]": {"test_system": "Escherichia coli NCTC 10418", "assay": "Nitroreductase detection on Columbia agar, colonies read under UV", "type": "cell-based", "design": "key: − = no fluorescence detected; +/− = weak fluorescence; + = medium fluorescence; ++ = strong fluorescence", "conditions": "Table 3; 100 mg/l in Columbia agar, 24 h 37° C., UV 360-365 nm", "protocol": "as §1, §2, §3"}, "[12]": {"test_system": "Staphylococcus aureus NCTC 6571", "assay": "Nitroreductase detection on Columbia agar, colonies read under UV", "type": "cell-based", "design": "key: − = no fluorescence detected; +/− = weak fluorescence; + = medium fluorescence; ++ = strong fluorescence", "conditions": "Table 3; 100 mg/l in Columbia agar, 24 h 37° C., UV 360-365 nm", "protocol": "as §1, §2, §3"}, "[13]": {"test_system": "Candida albicans ATCC 90028", "assay": "Nitroreductase detection on Columbia agar, colonies read under UV", "type": "cell-based", "design": "key: − = no fluorescence detected; +/− = weak fluorescence; + = medium fluorescence; ++ = strong fluorescence", "conditions": "Table 3; 100 mg/l in Columbia agar, 24 h 37° C., UV 360-365 nm", "protocol": "as §1, §2, §3"}, "[14]": {"test_system": "Yersinia enterocolitica NCTC 11176", "assay": "Nitroreductase detection on Columbia agar, colonies read under UV", "type": "cell-based", "design": "key: − = no fluorescence detected; +/− = weak fluorescence; + = medium fluorescence; ++ = strong fluorescence", "conditions": "Table 3; 100 mg/l in Columbia agar, 24 h 37° C., UV 360-365 nm", "protocol": "as §1, §2, §3"}, "[15]": {"test_system": "Pseudomonas aeruginosa NCTC 10662", "assay": "Nitroreductase detection on Columbia agar, colonies read under UV", "type": "cell-based", "design": "key: − = no fluorescence detected; +/− = weak fluorescence; + = medium fluorescence; ++ = strong fluorescence", "conditions": "Table 3; 100 mg/l in Columbia agar, 24 h 37° C., UV 360-365 nm", "protocol": "as §1, §2, §3"}, "[16]": {"test_system": "Staphylococcus epidermidis NCTC 11047", "assay": "Nitroreductase detection on Columbia agar, colonies read under UV", "type": "cell-based", "design": "key: − = no fluorescence detected; +/− = weak fluorescence; + = medium fluorescence; ++ = strong fluorescence", "conditions": "Table 3; 100 mg/l in Columbia agar, 24 h 37° C., UV 360-365 nm", "protocol": "as §1, §2, §3"}, "[17]": {"test_system": "Citrobacter freundii 46262 (wild)", "assay": "Nitroreductase detection on Columbia agar, colonies read under UV", "type": "cell-based", "design": "key: − = no fluorescence detected; +/− = weak fluorescence; + = medium fluorescence; ++ = strong fluorescence", "conditions": "Table 3; 100 mg/l in Columbia agar, 24 h 37° C., UV 360-365 nm", "protocol": "as §1, §2, §3"}, "[18]": {"test_system": "Bacillus subtilis NCTC 9372", "assay": "Nitroreductase detection on Columbia agar, colonies read under UV", "type": "cell-based", "design": "key: − = no fluorescence detected; +/− = weak fluorescence; + = medium fluorescence; ++ = strong fluorescence", "conditions": "Table 3; 100 mg/l in Columbia agar, 24 h 37° C., UV 360-365 nm", "protocol": "as §1, §2, §3"}, "[19]": {"test_system": "Candida glabrata NCPF 3943", "assay": "Nitroreductase detection on Columbia agar, colonies read under UV", "type": "cell-based", "design": "key to Intensity of fluorescence, Candida glabrata NCPF3943 / F: fluorescence (intensity), Candida glabrata NCPF 3943 / Intensity of the fluorescence, Candida glabrata NCPF 3943: − = no fluorescence detected; +/− = weak fluorescence; + = medium fluorescence; ++ = strong fluorescence", "conditions": "Table 3; 100 mg/l in Columbia agar, 24 h 37° C., UV 360-365 nm", "protocol": "as §1, §2, §3"}, "[20]": {"test_system": "MRSA NCTC 11939", "assay": "Nitroreductase detection on Columbia agar, colonies read under UV", "type": "cell-based, Staphylococcus aureus", "design": "key: − = no fluorescence detected; +/− = weak fluorescence; + = medium fluorescence; ++ = strong fluorescence", "conditions": "Table 3; 100 mg/l in Columbia agar, 24 h 37° C., UV 360-365 nm", "protocol": "as §1, §2, §3"}}, "data": [{"smiles": "O=[N+]([O-])c1ccc(Cl)cc1-c1nc2ccccc2o1", "note": "[Substrate 4, 2-(2′-Nitro-5′-chlorophenyl)benzoxazole]", "values": [{"measurement": "melting point", "value": "130 to 132", "unit": "°C"}]}, {"smiles": "O=[N+]([O-])c1cc2c(cc1-c1nc3ccccc3o1)OCO2", "note": "[Substrate 5]", "values": [{"measurement": "F: fluorescence (intensity), Salmonella typhimurium NCTC 74", "setting": "[1]", "value": "++"}, {"measurement": "F: fluorescence (intensity), Morganella morganii 462403 (wild)", "setting": "[2]", "value": "++"}, {"measurement": "F: fluorescence (intensity), Enterococcus faecium NCTC 7171", "setting": "[3]", "value": "−"}, {"measurement": "F: fluorescence (intensity), Streptococcus pyogenes NCTC 8306", "setting": "[4]", "value": "−"}, {"measurement": "F: fluorescence (intensity), Providencia rettgeri NCTC 7475", "setting": "[5]", "value": "+"}, {"measurement": "F: fluorescence (intensity), Enterococcus faecails NCTC 775", "setting": "[6]", "value": "−"}, {"measurement": "F: fluorescence (intensity), Listeria monocyto genes NCTC 11994", "setting": "[7]", "value": "+"}, {"measurement": "F: fluorescence (intensity), Serratia marcescens NCTC 10211", "setting": "[8]", "value": "++"}, {"measurement": "F: fluorescence (intensity), Burkholderia cepacia 1222", "setting": "[9]", "value": "+"}, {"measurement": "F: fluorescence (intensity), Enterobacter cloacae NCTC 11936", "setting": "[10]", "value": "++"}, {"measurement": "F: fluorescence (intensity), Escherichia coli NCTC 10418", "setting": "[11]", "value": "++"}, {"measurement": "F: fluorescence (intensity), Staphylococcus aureus NCTC 6571", "setting": "[12]", "value": "++"}, {"measurement": "F: fluorescence (intensity), Candida albicans ATCC 90028", "setting": "[13]", "value": "−"}, {"measurement": "F: fluorescence (intensity), Yersinia enterocolitica NCTC 11176", "setting": "[14]", "value": "−"}, {"measurement": "F: fluorescence (intensity), Pseudomonas aeruginosa NCTC 10662", "setting": "[15]", "value": "+"}, {"measurement": "F: fluorescence (intensity), Staphylococcus epidermidis NCTC 11047", "setting": "[16]", "value": "−"}, {"measurement": "F: fluorescence (intensity), Citrobacter freundii 46262 (wild)", "setting": "[17]", "value": "++"}, {"measurement": "F: fluorescence (intensity), Bacillus subtilis NCTC 9372", "setting": "[18]", "value": "−"}, {"measurement": "F: fluorescence (intensity), Candida glabrata NCPF 3943", "setting": "[19]", "value": "−"}, {"measurement": "F: fluorescence (intensity), MRSA NCTC 11939", "setting": "[20]", "value": "++"}]}]}
